Reference: patent US20060270638A1 (Wyeth, priority 2005, published 2006)
Entries after “also recorded” stand apart in the source; their conditions may differ.

Assays:
[1] = Safety in healthy subjects of the drug interaction study; assay type: in vivo, human (healthy subjects); details: single 25-mg oral warfarin alone, multiple 50-mg IV tigecycline, and combined
[2] = for plasma concentrations following tigecycline coadministration: versus warfarin 25 mg alone, FIG. 1, FIG. 2; for increase of exposure (AUC): warfarin given with a therapeutic regimen of tigecycline
[3] = Tigecycline steady-state serum pharmacokinetics, alone and with warfarin; assay type: in vivo, human (healthy subjects)
Method: Blood tubes for tigecycline analysis are placed immediately on ice until a clot forms.
Thus, the peak concentration (Cmax) and the time to peak concentration (tmax) are taken directly from the observed data. […] Systemic clearance (Cl) is calculated as dose/AUC, and it is presented both corrected and uncorrected for body weight.

[4] = test system: international normalized ratio (INR); details: in vivo; cited from earlier work
[5] = single 25-mg oral dose of warfarin, Mean ± SD
[6] = combination versus warfarin alone

## CC(=O)CC(c1ccccc1)c1c(O)c2ccccc2oc1=O (racemic) [Warfarin, 3-(α-acetonylbenzyl)-4-hydroxycoumarin]
Prothrombin time (INR); [5]
  INR AUC0-[…]: 216 ± 14 h
  INRmax: 1.8 ± 0.3
  tmax (time to maximum INR value): 1800 ± 540 min
[1]
  safety-related concerns: No safety-related concerns
[2]; human, in vivo, po
  R-warfarin AUC: 73000 ± 18000 ng·h/mL
  R-warfarin Cl/F: 0.0717 ± 0.013 mL/min/kg
  S-warfarin AUC: 47000 ± 18000 ng·h/mL
  S-warfarin Cl/F: 0.117 ± 0.0317 mL/min/kg

## CC(=O)C[C@H](c1ccccc1)c1c(O)c2ccccc2oc1=O [R-warfarin]
[2]
  plasma concentrations following tigecycline coadministration: higher
  increase of exposure (AUC): 68%

## CC(=O)C[C@@H](c1ccccc1)c1c(O)c2ccccc2oc1=O [S-warfarin]
[2]
  plasma concentrations following tigecycline coadministration: higher
  increase of exposure (AUC): 29%

## CN(C)c1cc(NC(=O)CNC(C)(C)C)c(O)c2c1C[C@H]1C[C@H]3[C@H](N(C)C)C(O)=C(C(N)=O)C(=O)[C@@]3(O)C(O)=C1C2=O [Tigecycline, (4S,4aS,5aR,12aS)-9-[2-(tert-butylamino)acetamido]-4,7-bis(dimethylamino)-1,4,4a,5,5a,6,11,12a-octahydro-3,10,12,12a-tetrahydroxy-1,11-dioxo-2-naphthacenecarboxamide]
Prothrombin time (INR); [6]
  mean INR AUC0-[…] following the combination treatment: unchanged
  mean INRmax lower following the combination treatment: 10%
Prothrombin time (INR); therapeutic regimen of tigecycline with warfarin
  effect on warfarin's anticoagulant profile (measured by INR): does not significantly alter; also recorded: did not significantly alter
[1]
  safety-related concerns: No safety-related concerns
[3]; following coadministration of warfarin
  mean steady-state systemic clearance and exposure (Cmax, C12h, AUC) versus monotherapy mean values: ≤ 10%
[3]; human, intravenous, 50 mg, tigecycline in serum, steady state, Mean ± SD
  Tmax: 30 min
[3]; human, intravenous, 50 mg, tigecycline in serum, steady state, Mean ± SD, read-out: AUC0-12 h
  AUC(0-t): 2100 ± 514 ng·h/mL
[3]; human, intravenous, 50 mg, tigecycline in serum, steady state, Mean ± SD, read-out: C12 h
  concentration at 12 h: 109 ± 28 ng/mL
[3]; human, tigecycline in serum, steady state, 50 mg IV every 12 h, Mean ± SD
  Cmax: 886 ± 202 ng/mL
[3]; tigecycline intravenous clearance, steady state, Mean ± SD
  systemic clearance: 5.17 ± 1.2 mL/min/kg
[2]; coadministration of the therapeutic regimen of tigecycline
  effect on oral-dose clearance of R-warfarin and S-warfarin: significantly decreased

## CN(C)c1ccc(O)c2c1C[C@H]1C[C@H]3[C@H](N(C)C)C(O)=C(C(N)=O)C(=O)[C@@]3(O)C(O)=C1C2=O [minocycline]
[4]
  compatibility with warfarin: demonstrated incompatibility
